Results: the NIST ThermoML archive (doi:10.1021/je060178m)
Numbers after ± are expanded uncertainties.

Columns and labels:
[1] = Molar enthalpy of transition or fusion; details: Crystal; DSC
[2] = Crystal; DTA

Molar enthalpy of transition or fusion [1]: 6.93 ± 0.191 kcal/mol
Normal melting temperature [2]: 138.70 ± 1.1 °C
Compound: NC(=O)c1ccccc1O [2-hydroxybenzamide]
